Measurements taken from ChEMBL document CHEMBL1137575, “Target specific virtual screening: optimization of an estrogen receptor screening platform” (J Med Chem, 2007).
Calls of active or inactive are those of the source. The rule behind the calls is not given here.

Experiments:
[1] = tested on: MCF7; assay: Antiproliferative activity against MCF7 cells after 72 hrs by MTT assay; format: functional, Homo sapiens
[2] = organism: Homo sapiens; assay: Selectivity for ERalpha over ERbeta
[3] = tested on: MCF7; assay: Cytotoxicity against MCF7 cells after 72 hrs by LDH assay; format: functional, cell-based; conditions: Homo sapiens
[4] = target: Estrogen receptor beta (Homo sapiens, UniProt Q92731); assay: Displacement of fluoromone from human recombinant ERbeta by fluorescence polarization assay
Sequence of Estrogen receptor beta (Q92731 whole entry): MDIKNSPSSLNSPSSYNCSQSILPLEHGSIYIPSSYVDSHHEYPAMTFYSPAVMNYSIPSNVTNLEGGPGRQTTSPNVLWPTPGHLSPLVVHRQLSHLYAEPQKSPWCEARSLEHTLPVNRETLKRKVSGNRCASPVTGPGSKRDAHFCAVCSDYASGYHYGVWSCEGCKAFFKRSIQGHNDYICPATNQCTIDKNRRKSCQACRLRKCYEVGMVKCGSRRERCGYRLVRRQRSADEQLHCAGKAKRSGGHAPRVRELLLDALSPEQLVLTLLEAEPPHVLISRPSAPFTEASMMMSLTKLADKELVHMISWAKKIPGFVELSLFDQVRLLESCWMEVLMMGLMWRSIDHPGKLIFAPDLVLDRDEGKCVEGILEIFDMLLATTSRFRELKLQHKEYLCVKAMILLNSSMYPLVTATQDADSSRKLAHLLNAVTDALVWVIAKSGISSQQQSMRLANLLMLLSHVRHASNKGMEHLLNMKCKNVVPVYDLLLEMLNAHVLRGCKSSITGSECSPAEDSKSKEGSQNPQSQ

[5] = target: T1, Estrogen receptor (Homo sapiens, UniProt P03372); assay: Displacement of fluoromone from human recombinant ERalpha by fluorescence polarization assay
T1 sequence (P03372 whole entry): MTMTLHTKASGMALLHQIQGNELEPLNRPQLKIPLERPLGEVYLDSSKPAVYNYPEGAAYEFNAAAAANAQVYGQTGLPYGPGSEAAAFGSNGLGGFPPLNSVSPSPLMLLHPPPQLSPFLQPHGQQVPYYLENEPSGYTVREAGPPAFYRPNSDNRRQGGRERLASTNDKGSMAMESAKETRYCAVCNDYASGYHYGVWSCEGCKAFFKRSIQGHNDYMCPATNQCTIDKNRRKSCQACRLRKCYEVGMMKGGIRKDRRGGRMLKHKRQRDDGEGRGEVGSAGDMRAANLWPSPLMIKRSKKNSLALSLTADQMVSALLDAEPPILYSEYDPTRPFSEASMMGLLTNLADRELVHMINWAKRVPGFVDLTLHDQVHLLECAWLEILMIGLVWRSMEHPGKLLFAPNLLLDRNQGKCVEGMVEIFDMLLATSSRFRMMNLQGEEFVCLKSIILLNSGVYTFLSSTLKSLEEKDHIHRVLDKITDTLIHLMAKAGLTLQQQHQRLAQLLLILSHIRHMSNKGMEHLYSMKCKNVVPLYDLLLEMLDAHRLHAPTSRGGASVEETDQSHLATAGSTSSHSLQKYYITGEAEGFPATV

SMILES	Activity [1] [µM]	Ratio IC50 [2]	Activity [3]	IC50 [4] [nM]	IC50 [5] [nM]
CC/C(=C(\c1ccccc1)c1ccc(OCCN(C)C)cc1)c1ccccc1 [TAMOXIFEN]	4.6	–	–	–	–
COc1cc(C2Nc3ccccc3C(=O)N2Cc2ccccc2)ccc1O (stereo unspecified)	15	4.4	Active	6200	1100
COC(=O)C1=C(N)Oc2cc(O)ccc2C1c1ccc(OCc2ccccc2F)cc1 (stereo unspecified)	11.4	13.7	Active	780	53
COC(=O)C1=C(N)Oc2cc(O)ccc2C1c1ccc(OCc2ccc(C)cc2)cc1 (stereo unspecified)	7	17	Active	915	56
